Common to all, as to assay type: cell-based
Assay [1] concerns the target T1, AR transactivation domain (TAD) (Homo sapiens, UniProt P10275).
T1 construct: expressed in transfected cells
T1 sequence (P10275 1-559 limits assumed): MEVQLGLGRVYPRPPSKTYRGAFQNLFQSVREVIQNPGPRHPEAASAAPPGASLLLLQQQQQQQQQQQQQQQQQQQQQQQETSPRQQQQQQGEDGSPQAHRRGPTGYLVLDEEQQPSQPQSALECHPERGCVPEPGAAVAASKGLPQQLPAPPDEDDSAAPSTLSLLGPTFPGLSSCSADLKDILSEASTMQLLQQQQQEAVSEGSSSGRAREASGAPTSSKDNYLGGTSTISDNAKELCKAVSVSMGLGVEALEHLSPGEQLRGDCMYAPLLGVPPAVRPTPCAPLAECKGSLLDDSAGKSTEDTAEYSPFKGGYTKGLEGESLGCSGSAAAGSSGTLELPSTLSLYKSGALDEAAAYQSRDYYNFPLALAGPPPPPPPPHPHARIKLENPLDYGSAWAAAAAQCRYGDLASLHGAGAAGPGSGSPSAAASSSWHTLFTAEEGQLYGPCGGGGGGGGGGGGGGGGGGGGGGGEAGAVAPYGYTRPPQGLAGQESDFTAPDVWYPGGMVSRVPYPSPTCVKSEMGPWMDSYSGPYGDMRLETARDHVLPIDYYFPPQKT
In words: AR-TAD fused to GAL4 DNA-binding domain reporter assay. The text has this:
(§1) The inhibitory activity of JN018 was further evaluated in experiments in which the AR transactivation domain (TAD) or the c-Jun or CREB TAD was fused to the heterologous GAL4 DNA-binding domain and thereby drive reporter gene expression governed by the GAL4 response element (FIG. 1).

The test system of another assay is c-Jun TAD. In words: JUN-TAD fused to GAL4 DNA-binding domain reporter assay. The conditions noted are these: Table 3 grade HIGH/MED/LOW, grades not defined.
Description: as §1

The test system of assay [2] is AP1 mediated reporter activity. In words: AP1 reporter assay.
[3] abbreviates: Table 3 grade HIGH/MED/LOW, grades not defined.

Each structure is given as a SMILES string. Where a name gives a salt, the structure may show the parent alone.

Regarding `C=C(CN(C)Cc1ccccc1)C(=O)/C(=C/c1ccc(Cl)cc1)c1ccccc1` [JN018, (E)-4-((Benzyl(methyl)amino)methyl)-1-(4-chlorophenyl)-2-phenylpenta-1,4-dien-3-one hydrochloride], in assay [1] (setting [3]), the AR-TAD entry is listed as “HIGH”. The “inhibition of the AR-GAL4-DBD fusion protein” value in assay [1] (result in words, versus c-Jun or CREB TAD fusions) is given as “selectively inhibits”. For the same compound, the JUN-TAD result in the assay on c-Jun TAD is on record as “LOW”. Moreover, the AP1 result in assay [2] (setting [3]) was “LOW”. Also, the “AP1 mediated reporter activity” value in assay [2] (result in words) was “does not affect”.

For the origin of these results see patent US11261152B2, “Inhibitors of the N-terminal domain of the androgen receptor” (The Regents of the University of California, priority 2017, dated 2022).
